Assay results as given in US20090054523A1, “Use of a Fatty Acid Composition Containing DHA for the Production of a Medical Product or a Food Stuff for the Treatment of Amyloidos-Related Diseases” (priority 2005, published 2009).

Tested on: secondary amyloidosis (spleen amyloid)
Assay: Secondary amyloidosis induced by silver nitrate injections, spleen amyloid by Congo red
Format: in vivo, Female NMRI mice
Procedure: Female NMRI mice were injected once a week subcutaneously with 0.3 ml of a 1% silver nitrate solution for 25 weeks. The animals were fed high fat diet containing mainly sunflower oil with a fat content of 55% of total daily calories. Three groups each consisting of 6 animals were given different omega-3 fatty acid concentrates (intervention group) or standard olive oil containing about 78% oleic acid (oleic acid group). In the intervention groups 15% of the fat content was exchanged with either 97% docosahexaenoic acid (DHA group) or EPAX1050TG containing 10% of EPA and 50% of DHA (EPAX group).
After study completion the mice were sacrificed and spleens were collected.
The air-dried smear material and 10-μm-thick sections from the formalin fixed material were stained for amyloid with specific dye alkaline Congo red. The slides were examined in cross-polarized light for bright green birefringence, specific for amyloid. Evaluation of the material was performed on coded slides.

SMILES: CC/C=C\C/C=C\C/C=C\C/C=C\C/C=C\C/C=C\CCC(=O)O [DHA, (all-Z omega-3)-4,7,10,13,16,19-docosahexaenoic acid]
- amyloid appeared in the spleen (25 weeks of weekly s.c. silver nitrate, 15% of fat content exchanged): one out of six
- animals that developed amyloid after silver nitrate injections (after 25 weeks of treatment): one
- animals with amyloid (spleen, 25 weeks of weekly s.c. silver nitrate, 15% of tot. fat of high fat diet exchanged): 1/6 animals
